# Peptide text beside a SMILES is read from it.
# How the values were obtained:
# [1] = tested on: HN receptor (HNR; CNTF-R/WSX-1/gp130) on F11 cells; assay: Immunofluorescence-based binding assay (2): biotin-HN / biotin-HNG binding to F11 cells; set-up: species or system mouse
# Description: A) F11 cells were seeded on 96-well plates coated with poly-L-lysine (7×10^3 cells/well). An indicated amount of biotin-HN or biotin-HNG was added to the cells with or without 10 μM of unlabelled HNG or HNA, followed by a binding assay based on immunofluorescence reaction (2) (left panels). On the other hand, F11 cells were transfected with 0.5 μg of pcDNA3.1/GS-human CNTF-R, pEF1/MycHis-human WSX-1, and 1.0 μg of pCAG-human gp130. At 24 hrs after the transfection, the cells were re-seeded on 96-well plates coated with poly-L-lysine (7×10^3 cells/well). After 36 hrs the re-seeding, an indicated amount of biotin-HN or biotin-HNG was added to the cells with or without 10 μM of unlabeled HNG or HNA, followed by a binding assay based on immunofluorescence reaction (2) (right panels).
# B) F11 cells were transfected with 0.5 μg of pRNA-U1.6/Shuttle vector, pRNA-U6.1/Shuttle-WSX-1 siRNA, pRNA-U6.1/Shuttle-CNTF-R siRNA, both pRNA-U6.1/Shuttle-WSX-1 siRNA and pRNA-U6.1/Shuttle-CNTF-R siRNA (0.5 μg each), pRNA-U6.1/Shuttle-FPR2 siRNA or pRNA-U6.1/Shuttle-LIFR siRNA. The total amount of vectors was adjusted to be 1.0 μg by including a backbone vector. At 24 hrs after the transfection, an indicated amount of biotin-HNG was added with or without unlabeled HNG, followed by a binding assay based on immunofluorescence reaction (2) at 72 hrs after the transfection.
# E) F11 cells on 6-well plate (7×10^4 cells/well) were transfected with 1.0 μg of pRNA-U6.1/Shuttle vector, pRNA-U6.1/Shuttle-Bax siRNA, or both pRNA-U6.1/Shuttle-WSX-1 siRNA and pRNA-U6.1/Shuttle-CNTF-R siRNA (0.5 μg each). At 72 hrs after the transfection, the cells were added with an indicated amount of biotin-HN with or without unlabeled HN or HNA (100 μM) and subjected to an HN-binding assay based on immunofluorescence.
# F11 cells (7×10^4/well in 6-well plates) were replated into 96-well plates (7×10^3 cells/well) at 24 hrs after transfection with indicated amounts of the plasmids encoding mycHis-WSX or V5-CNTF-R, and with PCAG-human gp130 if required. At 36 hrs after transfection, the cells were added with biotin-labeled HN or HNG of indicated concentrations in the presence or the absence of HNG (S14G-HN) or HNA (C8A-HN) of indicated concentrations (Hashimoto et al., 2001 a). After 6 hrs incubation, they were fixed with 4% paraformaldehyde in PBS for 30 min. After washing with PBS, cells were stained with FITC-conjugated avidin (Molecularprobe, Eugene, Oreg., USA). Immunofluorescence intensity was measured (excitation=485 nm, emission=535 nm) with a spectrofluorometer (Wallac1420 ARVOsx Multi Label Counter). Immunohistochemical analysis was done with a laser-scanning, confocal microscope LSM (Carl Zeiss, Germany).
# CNTF receptor = molecular target: T1, CNTF receptor (Homo sapiens, UniProt P26992); assay: In vitro pull-down assay with HN- or HNA-conjugated Sepharose 4B; assay type: binding; conditions: lysates of F11 cells overexpressing CNTF-R
# T1 construct: V5 (C); host or cells: F11 cells (lysate)
# T1 sequence (P26992 23-342): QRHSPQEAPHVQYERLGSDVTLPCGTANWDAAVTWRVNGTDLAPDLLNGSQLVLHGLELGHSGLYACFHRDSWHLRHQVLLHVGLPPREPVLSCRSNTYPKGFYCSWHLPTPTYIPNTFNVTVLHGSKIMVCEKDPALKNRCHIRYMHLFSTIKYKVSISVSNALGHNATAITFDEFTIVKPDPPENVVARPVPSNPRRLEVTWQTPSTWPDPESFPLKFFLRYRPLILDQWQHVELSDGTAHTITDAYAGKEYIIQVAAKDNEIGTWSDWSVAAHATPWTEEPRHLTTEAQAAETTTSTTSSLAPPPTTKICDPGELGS
# Text: (§1) C) The photos show the results of in vitro pull down assay using HN- or HNA-conjugated Sepharose 4B bead. WSX-1, CNTF-R, and […] were over-expressed in F11 cells and the pull down assay was made using the above 4B bead. Immunoblot analysis was done using PO4 antibody against Humanin (lower panes). HN or HNA comprised in the above Sepharose 4B bead was compared with synthesized HN peptide (50 pmol) as a positive control.
# (§2) F11 cells (7×10^4/well in 6-well plates) were transfected with the plasmids encoding mycHis-WSX-1, V5-CNTF-R or rat IL-6R (V6 tagged). At 48 hrs after transfection, the cells were harvested for pull-down assays with HN or HNA-conjugated Sepharose 4B. For conjugation of […] or HNA with Sepharose 4B, 3 ml of CNBr-activated Sepharose 4B was incubated with 0.5 mg of HN or HNA in a coupling buffer (0.1M NaHCO3 0.5M NaCl, pH8.3) overnight at 4° C. The beads were then reacted with a blocking buffer (0.2M glycine, pH 8.0) for 2 hrs at a room temperature, washed with the coupling buffer and stored at 4° C. for use in pull-down assay. For each pull-down assay, 20 μl of 1:1 slurry of Sepharose was used for 100 μl of the cell lysate.
# WSX-1 = molecular target: T2, WSX-1 (Homo sapiens, UniProt Q6UWB1); assay: as above; assay type: binding; conditions: lysates of F11 cells overexpressing WSX-1
# T2 construct: His; expressed in transfected cells; host or cells: F11 cells (lysate)
# T2 sequence (Q6UWB1 33-636): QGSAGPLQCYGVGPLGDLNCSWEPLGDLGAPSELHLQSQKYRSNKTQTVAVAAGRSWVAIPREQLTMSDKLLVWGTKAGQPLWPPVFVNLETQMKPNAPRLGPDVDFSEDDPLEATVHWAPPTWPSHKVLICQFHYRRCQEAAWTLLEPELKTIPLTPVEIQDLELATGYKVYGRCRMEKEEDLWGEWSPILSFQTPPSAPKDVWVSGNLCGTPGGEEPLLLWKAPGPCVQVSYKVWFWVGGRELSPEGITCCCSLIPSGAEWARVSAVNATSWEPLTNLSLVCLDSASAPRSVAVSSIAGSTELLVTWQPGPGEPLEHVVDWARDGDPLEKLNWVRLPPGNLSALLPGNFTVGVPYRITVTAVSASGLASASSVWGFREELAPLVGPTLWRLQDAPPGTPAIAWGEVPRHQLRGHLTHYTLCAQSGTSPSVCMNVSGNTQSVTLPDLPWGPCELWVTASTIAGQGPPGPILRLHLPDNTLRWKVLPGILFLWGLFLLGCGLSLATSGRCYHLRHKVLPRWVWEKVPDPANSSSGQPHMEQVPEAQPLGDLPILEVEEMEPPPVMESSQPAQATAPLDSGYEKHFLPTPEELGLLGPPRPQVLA
# Text: as §1, §2
binding in pull-down to CNTF receptor (CNTF receptor),binding in pull-down to WSX-1 (WSX-1),Compound,binding to F11 cells ([1]; expression of endogenous CNTF-R and WSX-1 simultaneously decreased by siRNA),binding to F11 cells ([1]; expression of endogenous CNTF-R or WSX-1 decreased by siRNA)
,,"CC[C@H](C)[C@H](NC(=O)[C@H](CCC(=O)O)NC(=O)CNC(=O)[C@@H](NC(=O)[C@H](CC(C)C)NC(=O)[C@H](CC(C)C)NC(=O)[C@H](CC(C)C)NC(=O)[C@H](CC(C)C)NC(=O)[C@H](CS)NC(=O)[C@H](CO)NC(=O)[C@H](Cc1ccccc1)NC(=O)CNC(=O)[C@H](CCCNC(=N)N)NC(=O)[C@@H]1CCCN1C(=O)[C@H](C)NC(=O)[C@@H](N)CCSC)[C@@H](C)O)C(=O)N[C@@H](CC(=O)O)C(=O)N[C@@H](CC(C)C)C(=O)N1CCC[C@H]1C(=O)N[C@H](C(=O)N[C@@H](CCCCN)C(=O)N[C@@H](CCCNC(=N)N)C(=O)N[C@@H](CCCNC(=N)N)C(=O)N[C@@H](C)C(=O)O)C(C)C [HNG, S14 G-Humanin] (H-MAPRGFSCLLLLTGEIDLPVKRRA-OH; N-terminus and C-terminus assumed)",almost completely inhibited,significantly decreased
did not bind,did not bind,C8A-Humanin (MAPRGFSALLLLTSEIDLPVKRRA) [HNA],,

# Source: patent US8173771B2, “Humanin receptor or humanin-like polypeptide receptor” (Keio Univeristy, priority 2005, dated 2012)
